Results on one molecule are retold here after paper doi:10.1101/2022.12.26.521971v1 (biorxiv, 2022).

The experiment concerns the target rNTSR1 (wild-type rat Neurotensin Receptor 1) (Rattus norvegicus, UniProt P20789). Kind of experiment: cell-based. Set-up: species or system HEK293T.

Sequence of rNTSR1 (wild-type rat Neurotensin Receptor 1) (P20789 whole entry): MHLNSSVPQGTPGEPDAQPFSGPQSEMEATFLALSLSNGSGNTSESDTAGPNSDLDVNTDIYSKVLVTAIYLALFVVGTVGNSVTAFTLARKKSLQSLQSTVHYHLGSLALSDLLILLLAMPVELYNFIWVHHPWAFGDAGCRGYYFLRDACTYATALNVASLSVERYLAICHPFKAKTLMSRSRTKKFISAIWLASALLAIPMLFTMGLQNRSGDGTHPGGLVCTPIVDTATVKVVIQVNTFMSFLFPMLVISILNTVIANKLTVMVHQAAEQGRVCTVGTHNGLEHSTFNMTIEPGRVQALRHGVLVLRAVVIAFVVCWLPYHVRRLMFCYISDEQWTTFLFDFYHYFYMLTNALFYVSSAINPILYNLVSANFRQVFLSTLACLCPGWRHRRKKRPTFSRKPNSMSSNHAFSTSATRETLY

In turn, `COc1cc2nc(C3CC3)nc(N3CCN(c4ccccc4OC)CC3)c2cc1OC` [ML314] gave a Kb of 776 nM.
